These results are taken from US11498923B2 (Merck Sharp & Dohme Corp., priority 2017, dated 2022).

As usually defined, the Ki is a measure of affinity in units of concentration, obtained from inhibition or displacement.

Like-named read-outs stand apart in the source and are kept apart here.

For the assay, the target named is T1, human A2a receptor (Homo sapiens, UniProt P29274).
T1 construct: purchased Perkin-Elmer RBHA2AM400UA; host or cells: HEK293 cells, used as a membrane preparation
Briefly: A2a receptor competition binding assay (Scintillation Proximity). As to conditions: membranes from HEK293 cells expressing human A2a receptor, 0.5 nM tritiated ligand, Cheng-Prusoff. Put shortly: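 HEK293 membranes bearing the human receptor, pretreated with adenosine deaminase, competed against 0.5 nM tritiated pyrazolotriazolopyrimidine antagonist with compound at 3000–0.15 nM final in DPBS plus 10 mM MgCl2. SPA bead readout after 1 h at room temperature; Ki from EC50 via Cheng-Prusoff.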

T1 sequence (P29274 whole entry): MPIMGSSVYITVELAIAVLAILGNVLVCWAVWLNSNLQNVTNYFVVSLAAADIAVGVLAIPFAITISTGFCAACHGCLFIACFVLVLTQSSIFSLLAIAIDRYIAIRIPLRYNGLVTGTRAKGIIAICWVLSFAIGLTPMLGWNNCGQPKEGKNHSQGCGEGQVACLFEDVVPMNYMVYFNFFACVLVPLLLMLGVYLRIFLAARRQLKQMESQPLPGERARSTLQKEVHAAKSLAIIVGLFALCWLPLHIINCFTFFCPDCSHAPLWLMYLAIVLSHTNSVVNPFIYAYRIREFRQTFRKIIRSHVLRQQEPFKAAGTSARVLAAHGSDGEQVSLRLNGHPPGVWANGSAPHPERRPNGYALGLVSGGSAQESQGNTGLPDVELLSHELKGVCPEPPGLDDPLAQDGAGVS

For `COc1cccc2c1nc(N)n1cc(C(=O)N3CCOC(C(F)(F)F)C3)nc21` (centres unmarked) [Ex-185, (5-amino-7-methoxyimidazo[1,2-c]quinazolin-2-yl)(2-(trifluoromethyl)morpholino) methanone], where the note is “read-out: A2a Ki”, the Ki turned out to be 65 nM.

`COc1cccc2c1nc(N)n1cc(C(=O)N3CCOCC3CC(C)C)nc21` (centres unmarked) [Ex-186, (5-amino-7-methoxyimidazo[1,2-c]quinazolin-2-yl)(3-isobutylmorpholino) methanone]: the Ki (read-out: A2a Ki) is 53.8 nM.

On to `COc1cccc2c1nc(N)n1cc(C(=O)N3CCOC(C)(C)C3)nc21` [Ex-187, (5-amino-7-methoxyimidazo[1,2-c]quinazolin-2-yl)(2,2-dimethylmorpholino) methanone], for which, where the note is “read-out: A2a Ki”, the Ki turned out to be 190 nM.

Where the note is “A2a Ki”, `COc1cccc2c1nc(N)n1cc(C(=O)N3CCC4(CC3)OCCO4)nc21` [Ex-188, (5-amino-7-methoxyimidazo[1,2-c]quinazolin-2-yl)(1,4-dioxa-8-azaspiro[4.5]decan-8-yl)methanone] yielded a Ki of 54 nM.

Take `COc1cccc2c1nc(N)n1cc(C(=O)N3CCCC(C)(C)C3)nc21` [Ex-189, (5-amino-7-methoxyimidazo[1,2-c]quinazolin-2-yl)(3,3-dimethylpiperidin-1-yl)methanone]: for the setting “read-out: A2a Ki”, the Ki is 4.5 nM.

Regarding `COc1cccc2c1nc(N)n1cc(C(=O)N3CCCCC3)nc21` [Ex-190, (5-amino-7-methoxyimidazo[1,2-c]quinazolin-2-yl)(piperidin-1-yl)methanone], the Ki (read-out: A2a Ki) turned out to be 21 nM.

Turning to `COc1cccc2c1nc(N)n1cc(C(=O)N3CCCC(CO)C3)nc21` (centres unmarked) [Ex-191, (5-amino-7-methoxyimidazo[1,2-c]quinazolin-2-yl)(3-(hydroxymethyl)piperidin-1-yl)methanone], where the note is “read-out: A2a Ki”, the inhibition constant (Ki) came out at 23 nM.

`COc1cccc2c1nc(N)n1cc(C(=O)N3CCC4CCCCC4C3)nc21` (centres unmarked) [Ex-192, (5-amino-7-methoxyimidazo[1,2-c]quinazolin-2-yl)(octahydroisoquinolin-2(1H)-yl)methanone]: the Ki (read-out: A2a Ki) is 11 nM.

With `COc1cccc2c1nc(N)n1cc(C(=O)N3CCC(C)CC3)nc21` [Ex-193, (5-amino-7-methoxyimidazo[1,2-c]quinazolin-2-yl)(4-methylpiperidin-1-yl)methanone], the inhibition constant Ki (read-out: A2a Ki) turned out to be 13 nM.

For the compound `CCN(CC)C(=O)C1CCCN(C(=O)c2cn3c(N)nc4c(OC)cccc4c3n2)C1` (centres unmarked) [Ex-194, 1-(5-amino-7-methoxyimidazo[1,2-c]quinazoline-2-carbonyl)-N,N-diethylpiperidine-3-carboxamide], under “read-out: A2a Ki”, the inhibitory constant (Ki) stood at 21 nM.

As to `COc1cccc2c1nc(N)n1cc(C(=O)N3CCCCC3C)nc21` (centres unmarked) [Ex-195, (5-amino-7-methoxyimidazo[1,2-c]quinazolin-2-yl)(2-methylpiperidin-1-yl)methanone], the Ki (read-out: A2a Ki) was determined as 10 nM.

With `COc1cccc2c1nc(N)n1cc(C(=O)N3CCC(C(C)C)CC3)nc21` [Ex-196, (5-amino-7-methoxyimidazo[1,2-c]quinazolin-2-yl)(4-isopropylpiperidin-1-yl)methanone], the Ki (read-out: A2a Ki) is 11 nM.

In the case of `COc1cccc2c1nc(N)n1cc(C(=O)N3CCC4(CCOC4)CC3)nc21` [Ex-197, (5-amino-7-methoxyimidazo[1,2-c]quinazolin-2-yl)(2-oxa-8-azaspiro[4.5]decan-8-yl)methanone], the Ki (read-out: A2a Ki) was 22 nM.

For `COc1cccc2c1nc(N)n1cc(C(=O)N3CCCCC34CC4)nc21` [Ex-198, (5-amino-7-methoxyimidazo[1,2-c]quinazolin-2-yl)(4-azaspiro[2.5]octan-4-yl)methanone], under “read-out: A2a Ki”, the inhibitory constant (Ki) turned out to be 5.6 nM.

Turning to `COc1cccc2c1nc(N)n1cc(C(=O)N3CCC(=O)C(C(C)C)C3)nc21` (centres unmarked) [Ex-199, 1-(5-amino-7-methoxyimidazo[1,2-c]quinazoline-2-carbonyl)-3-isopropylpiperidin-4-one], the Ki (read-out: A2a Ki) stood at 260 nM.

Take `COc1cccc2c1nc(N)n1cc(C(=O)N3CCCC4(CCC4)C3)nc21` [Ex-200, (5-amino-7-methoxyimidazo[1,2-c]quinazolin-2-yl)(6-azaspiro[3.5]nonan-6-yl)methanone]: the Ki (read-out: A2a Ki) worked out at 4.6 nM.

For `COc1cccc2c1nc(N)n1cc(C(=O)N3CCC4(CC3)CC4)nc21` [Ex-201, (5-amino-7-methoxyimidazo[1,2-c]quinazolin-2-yl)(6-azaspiro[2.5]octan-6-yl)methanone], the Ki (read-out: A2a Ki) came to 14 nM.

As for `COc1cccc2c1nc(N)n1cc(C(=O)N3CCC4(CCCC4)CC3)nc21` [Ex-202, (5-amino-7-methoxyimidazo[1,2-c]quinazolin-2-yl)(8-azaspiro[4.5]decan-8-yl)methanone], the inhibitory constant (Ki) (read-out: A2a Ki) was 5.2 nM.

Regarding `COc1cccc2c1nc(N)n1cc(C(=O)N3CCCC4(COC4)C3)nc21` [Ex-203, (5-amino-7-methoxyimidazo[1,2-c]quinazolin-2-yl)(2-oxa-6-azaspiro[3.5]nonan-6-yl)methanone], the Ki (read-out: A2a Ki) was 11 nM.

Take `COc1cccc2c1nc(N)n1cc(C(=O)N3CCCC4(CCCCO4)C3)nc21` (centres unmarked) [Ex-204, (5-amino-7-methoxyimidazo[1,2-c]quinazolin-2-yl)(1-oxa-8-azaspiro[5.5]undecan-8-yl)methanone]: where the note is “read-out: A2a Ki”, the inhibition constant (Ki) was determined as 12 nM.

Take `COc1cccc2c1nc(N)n1cc(C(=O)N3CCCC4(CCCO4)C3)nc21` (centres unmarked) [Ex-205, (5-amino-7-methoxyimidazo[1,2-c]quinazolin-2-yl)(1-oxa-7-azaspiro[4.5]decan-7-yl)methanone]: the inhibition constant (Ki) (read-out: A2a Ki) was found to be 13 nM.

With `COc1cccc2c1nc(N)n1cc(C(=O)N3CCC4(CC3)COC4)nc21` [Ex-206, (5-amino-7-methoxyimidazo[1,2-c]quinazolin-2-yl)(2-oxa-7-azaspiro[3.5]nonan-7-yl)methanone], the inhibition constant Ki (read-out: A2a Ki) was 110 nM.

`COc1cccc2c1nc(N)n1cc(C(=O)N3CCC(C)(C)CC3)nc21` [Ex-207, (5-amino-7-methoxyimidazo[1,2-c]quinazolin-2-yl)(4,4-dimethylpiperidin-1-yl)methanone]: the Ki (read-out: A2a Ki) was found to be 2.1 nM.

On to `COc1cccc2c1nc(N)n1cc(C(=O)N3C4CCCC3CC4)nc21` [Ex-208, (5-amino-7-methoxyimidazo[1,2-c]quinazolin-2-yl)(8-azabicyclo[3.2.1]octan-8-yl)methanone], for which affinity (A2a Ki) was put at a Ki of 3.2 nM.

Consider `COc1cccc2c1nc(N)n1cc(C(=O)N3CCCC3C(C)C)nc21` (centres unmarked) [Ex-209, (5-amino-7-methoxyimidazo[1,2-c]quinazolin-2-yl)(2-isopropylpyrrolidin-1-yl)methanone], for which, where the note is “read-out: A2a Ki”, the Ki was determined as 2.9 nM.

Regarding `COc1cccc2c1nc(N)n1cc(C(=O)N3C(C)CCC3C)nc21` (centres unmarked) [Ex-210, (5-amino-7-methoxyimidazo[1,2-c]quinazolin-2-yl)(2,5-dimethylpyrrolidin-1-yl)methanone], the Ki (read-out: A2a Ki) is 6.1 nM.

Turning to `COc1cccc2c1nc(N)n1cc(C(=O)N3CCC[C@H]3C(F)(F)F)nc21` [Ex-211, (S)-(5-amino-7-methoxyimidazo[1,2-c]quinazolin-2-yl)(2-(trifluoromethyl)pyrrolidin-1-yl)methanone], the inhibition constant (Ki) (read-out: A2a Ki) is 14 nM.

Turning to `COc1cccc2c1nc(N)n1cc(C(=O)N3CC[C@H](OC)C3)nc21` [Ex-212, (S)-(5-amino-7-methoxyimidazo[1,2-c]quinazolin-2-yl)(3-methoxypyrrolidin-1-yl)methanone], the Ki (read-out: A2a Ki) is 5.5 nM.

For the compound `COc1cccc2c1nc(N)n1cc(C(=O)N3CC[C@@H](OC)C3)nc21` [Ex-213, (R)-(5-amino-7-methoxyimidazo[1,2-c]quinazolin-2-yl)(3-methoxypyrrolidin-1-yl)methanone], under “read-out: A2a Ki”, the Ki turned out to be 10 nM.

`COc1cccc2c1nc(N)n1cc(C(=O)N3CC[C@@H](CF)C3)nc21` [Ex-214, (R)-(5-amino-7-methoxyimidazo[1,2-c]quinazolin-2-yl)(3-(fluoromethyl)pyrrolidin-1-yl)methanone]: under “read-out: A2a Ki”, the inhibition constant (Ki) came out at 11 nM.

Consider `COc1cccc2c1nc(N)n1cc(C(=O)N3CC[C@H](F)C3)nc21` [Ex-215, (S)-(5-amino-7-methoxyimidazo[1,2-c]quinazolin-2-yl)(3-fluoropyrrolidin-1-yl)methanone], for which the Ki (read-out: A2a Ki) was determined as 7.4 nM.

`COc1cccc2c1nc(N)n1cc(C(=O)N3CCC[C@@H]3C)nc21` [Ex-216, (S)-(5-amino-7-methoxyimidazo[1,2-c]quinazolin-2-yl)(2-methylpyrrolidin-1-yl)methanone]: the Ki (read-out: A2a Ki) was 10 nM.

Take `COc1cccc2c1nc(N)n1cc(C(=O)N3CCC[C@@H]3C(F)(F)F)nc21` [Ex-217, (R)-(5-amino-7-methoxyimidazo[1,2-c]quinazolin-2-yl)(2-(trifluoromethyl)pyrrolidin-1-yl)methanone]: under “read-out: A2a Ki”, the inhibition constant Ki turned out to be 7.8 nM.

The compound `COc1cccc2c1nc(N)n1cc(C(=O)N3C4CCC3CC4)nc21` [Ex-218, (5-amino-7-methoxyimidazo[1,2-c]quinazolin-2-yl)((1s,4s)-7-azabicyclo[2.2.1]heptan-7-yl)methanone] had an inhibition constant (Ki) (A2a Ki) of 6.1 nM.

For the compound `COc1cccc2c1nc(N)n1cc(C(=O)N3CCC[C@H]3CF)nc21` [Ex-219, (S)-(5-amino-7-methoxyimidazo[1,2-c]quinazolin-2-yl)(2-(fluoromethyl)pyrrolidin-1-yl)methanone], the Ki (read-out: A2a Ki) was determined as 3.6 nM.

In the case of `COc1cccc2c1nc(N)n1cc(C(=O)N3CCC4OCCC43)nc21` (centres unmarked) [Ex-220, (5-amino-7-methoxyimidazo[1,2-c]quinazolin-2-yl)(hexahydro-4H-furo[3,2-b]pyrrol-4-yl)methanone], the inhibition constant (Ki) (read-out: A2a Ki) is 24 nM.

For the compound `COc1cccc2c1nc(N)n1cc(C(=O)N3CCC(F)(F)C3)nc21` [Ex-221, (5-amino-7-methoxyimidazo[1,2-c]quinazolin-2-yl)(3,3-difluoropyrrolidin-1-yl)methanone], the Ki (read-out: A2a Ki) is 6.6 nM.

For the compound `COc1cccc2c1nc(N)n1cc(C(=O)N3CCC4(CCCC4)C3)nc21` [Ex-222, (5-amino-7-methoxyimidazo[1,2-c]quinazolin-2-yl)(2-azaspiro[4.4]nonan-2-yl)methanone], the inhibition constant Ki (read-out: A2a Ki) came out at 11 nM.
